Patent publication US11986471B2, “Compounds and methods of use” (Tango Therapeutics, Inc., priority 2018, dated 2024)

Tests used:
Format in all cases: biochemical
[1] = target: T1, PRMT5 (Homo sapiens, UniProt O14744); experiment: PRMT5 IC50 assay in the presence of MTA as cofactor; details: for IC50: PRMT5, MTA as cofactor; for SAM/MTA Ratio: ratio between the Ki in the presence of SAM and the Ki in the presence of MTA
T1 construct: purchased Viva (custom protein)
Text: (§1) Table 1a indicates IC50 values (μM) against PRMT5 for exemplary compounds in the presence of SAM as cofactor, with no cofactor and with MTA as cofactor, respectively (columns 3-5). […] The Ki values can be calculated from the IC50 values as described in the Examples section. As detailed in the Examples section, for the assay performed in the presence of SAM, IC50=Ki×1.5 (Ki=IC50/1.5). For the assay performed in the presence of MTA, IC50=Ki×13.5 (Ki=IC50/13.5). Column 6 indicates the ratio between the Ki of compounds in the presence of SAM and the Ki of compounds in the presence of MTA

[2] = target: T1, PRMT5; experiment: PRMT5 IC50 assay in the presence of SAM as cofactor
Text: as §1

[3] = target: T1, PRMT5; experiment: PRMT5 IC50 assay with no cofactor
Text: as §1

T1 sequence (O14744 whole entry): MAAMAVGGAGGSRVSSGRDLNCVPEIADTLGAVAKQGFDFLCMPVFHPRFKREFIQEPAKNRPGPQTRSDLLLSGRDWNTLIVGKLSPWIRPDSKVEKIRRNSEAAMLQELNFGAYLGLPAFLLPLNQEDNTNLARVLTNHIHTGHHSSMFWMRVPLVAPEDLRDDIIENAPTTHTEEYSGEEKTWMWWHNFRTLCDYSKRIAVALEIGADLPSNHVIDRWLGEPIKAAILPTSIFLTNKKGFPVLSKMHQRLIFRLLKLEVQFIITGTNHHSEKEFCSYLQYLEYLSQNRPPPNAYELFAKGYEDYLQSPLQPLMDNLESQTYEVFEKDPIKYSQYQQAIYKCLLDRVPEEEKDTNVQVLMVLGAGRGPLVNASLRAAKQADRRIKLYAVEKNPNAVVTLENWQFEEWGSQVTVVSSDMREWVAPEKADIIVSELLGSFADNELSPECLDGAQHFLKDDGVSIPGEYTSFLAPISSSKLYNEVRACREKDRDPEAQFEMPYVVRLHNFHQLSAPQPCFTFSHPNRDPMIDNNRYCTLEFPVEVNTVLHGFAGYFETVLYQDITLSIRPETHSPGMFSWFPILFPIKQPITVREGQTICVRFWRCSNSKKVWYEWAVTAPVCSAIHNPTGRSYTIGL
T1 sequence (Q9BQA1 whole entry partner): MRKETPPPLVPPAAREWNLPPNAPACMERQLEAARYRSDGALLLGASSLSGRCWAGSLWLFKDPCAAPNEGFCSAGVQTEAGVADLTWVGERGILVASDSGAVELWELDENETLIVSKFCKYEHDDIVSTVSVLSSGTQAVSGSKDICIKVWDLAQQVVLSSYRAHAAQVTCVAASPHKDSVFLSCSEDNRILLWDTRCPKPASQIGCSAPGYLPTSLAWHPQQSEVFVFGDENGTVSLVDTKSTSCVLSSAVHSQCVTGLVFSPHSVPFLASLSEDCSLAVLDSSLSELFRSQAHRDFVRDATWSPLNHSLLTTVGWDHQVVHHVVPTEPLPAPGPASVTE

Row | IC50 [1] | IC50 [2] | IC50 [3] | Compound | SAM/MTA Ratio [1]
1 | 0.5 to 5 µM | 0.5 to 5 µM | ≥ 5 µM | CC(=O)N1CC(Nc2cc(C(=O)NC[C@H](O)CN3CCc4c(ccc(OCc5cnco5)c4C)C3)ncn2)C1 [Compound 543, 6-[(1-acetylazetidin-3-yl)amino]-N-[(2S)-2-hydroxy-3-{5-methyl-6-[(1,3-oxazol-5-yl)methoxy]-1,2,3,4-tetrahydroisoquinolin-2-yl}propyl]pyrimidine-4-carboxamide] | A (a Ki ratio greater than or equal to 10 fold between the Ki in the presence of SAM and the Ki in the presence of MTA)
2 | 0.5 to 5 µM | 0.5 to 5 µM | ≥ 5 µM | Cc1c(OCc2cnco2)ccc2c1CCN(C[C@@H](O)CNC(=O)c1cccc(NC3CCOCC3)c1)C2 [Compound 548, N-[(2S)-2-hydroxy-3-{5-methyl-6-[(1,3-oxazol-5-yl)methoxy]-1,2,3,4-tetrahydroisoquinolin-2-yl}propyl]-3-[(oxan-4-yl)amino]benzamide] | A (a Ki ratio greater than or equal to 10 fold between the Ki in the presence of SAM and the Ki in the presence of MTA)
3 | 0.5 to 5 µM | 0.5 to 5 µM | ≥ 5 µM | Cc1c(OCc2cnco2)ccc2c1CCN(C[C@@H](O)CNC(=O)c1ccnc(N[C@H]3C[C@H](O)C3)c1)C2 [Compound 552, N—((S)-2-hydroxy-3-(5-methyl-6-(oxazol-5-ylmethoxy)-3,4-dihydroisoquinolin-2(1H)-yl)propyl)-2-(((1r,3S)-3-hydroxycyclobutyl)amino)isonicotinamide] | A (a Ki ratio greater than or equal to 10 fold between the Ki in the presence of SAM and the Ki in the presence of MTA)
4 | 0.05 to 0.5 µM | 0.5 to 5 µM | ≥ 5 µM | CCCN(C)c1cc(C(=O)NC[C@H](O)CN2CCc3cc(OCc4ocnc4C)ccc3C2)cc(NC2CCC2)n1 [Compound 553, 2-(cyclobutylamino)-N-[(2S)-2-hydroxy-3-{6-[(4-methyl-1,3-oxazol-5-yl)methoxy]-1,2,3,4-tetrahydroisoquinolin-2-yl}propyl]-6-[methyl(propyl)amino]pyridine-4-carboxamide] | A (a Ki ratio greater than or equal to 10 fold between the Ki in the presence of SAM and the Ki in the presence of MTA)
5 | 0.05 to 0.5 µM | 0.5 to 5 µM | ≥ 5 µM | Cc1ncoc1COc1ccc2c(c1C)CCN(C[C@@H](O)CNC(=O)c1cc(NC3CCC3)nc(N3CCCCC3)c1)C2 [Compound 557, 2-(cyclobutylamino)-N-[(2S)-2-hydroxy-3-{5-methyl-6-[(4-methyl-1,3-oxazol-5-yl)methoxy]-1,2,3,4-tetrahydroisoquinolin-2-yl}propyl]-6-(piperidin-1-yl)pyridine-4-carboxamide] | A (a Ki ratio greater than or equal to 10 fold between the Ki in the presence of SAM and the Ki in the presence of MTA)
6 | 0.5 to 5 µM | 0.5 to 5 µM | ≥ 5 µM | CC(=O)N1CCC(Nc2cccc(C(=O)NC[C@H](O)CN3CCc4cc(OCc5cnco5)ccc4C3)c2)C1 (stereo partly drawn) [Compound 558, 3-((1-acetylpyrrolidin-3-yl)amino)-N—((S)-2-hydroxy-3-(6-(oxazol-5-ylmethoxy)-3,4-dihydroisoquinolin-2(1H)-yl)propyl)benzamide] | A (a Ki ratio greater than or equal to 10 fold between the Ki in the presence of SAM and the Ki in the presence of MTA)
7 | 0.05 to 0.5 µM | 0.5 to 5 µM | ≥ 5 µM | CC(=O)N1CC(Nc2cc(C(=O)NC[C@H](O)CN3CCc4cc(OCc5cnco5)ccc4C3)ncn2)C1 [Compound 562, (S)-6-((1-acetylazetidin-3-yl)amino)-N-(2-hydroxy-3-(6-(oxazol-5-ylmethoxy)-3A-dihydroisoquinolin-2(1H)-yl)propyl)pyrimidine-4-carboxamide] | A (a Ki ratio greater than or equal to 10 fold between the Ki in the presence of SAM and the Ki in the presence of MTA)
